US20030226169A1, “DNA sequences encoding antifungal proteins” (priority 1995, published 2003)
≈ marks a conversion by molar mass, not a printed value. Where two headings read alike, the source gives them in different places. Non-standard residues stand in square brackets, D forms with d. Residues, ends and D or L forms follow the SMILES beside them. Abu = CC[C@H](N)C(=O)O

Columns and labels:
[1] = system: Fusarium culmorum (IMI 180420); assay: Antifungal growth inhibition microplate assay (photospectrometry); type: cell-based; settings: for IC50 / MIC / F CULMORUM IC50 / F CULMORUM MIC / F CULMORUM IC: ½ PDB; for F CULMORUM IC: Table 6 / FIG. 8: Rs-AFP1-based 9-mer split peptides; for antifungal activity (in words): overlapping 13- to 20-mer MPS peptides Ile26-Phe49, Cys replaced by alpha-aminobutyric acid, FIGS. 10-13
Protocol: (§1) The following fungal strains were used: Alternaria brassicicola (MUCL 20297), Ascophyta pisi (MUCL 30164), Botrytis cinerea (MUCL 30158), Fusarium culmorum (IMI 180420) and Verticillium dahliae (MUCL 19210).
(§2) Fungi were grown on six cereal agar plates at room temperature and under white fluorescent light except for F culmorum and V dahliae which were grown in the dark. The duration of the spore harvest varied between 10 and 25 days depending on the strain. Spores were collected as follows. Five to ten ml of sterile milli-Q water was poured into each dish and the surface of the agar was rubbed with a sterile spatula to obtain a suspension containing mycelium and spores. This suspension was filtered through a sterile glasswool-plugged funnel and the filtrate containing the spores was collected in a sterile polypropylene centrifuge tube. The A brassicicola spores were suspended in sterile 0.1 Tween 20 (Merk, 822184) due to their hydrophobic nature. The spore suspensions were then washed twice by centrifugation at 2,400×g for 15 minutes and resuspended in a small volume of steril milli-Q water. The spore density was determined in a counting chamber and then adjusted to 4×10^7 spores per ml. Aliquots of the spore suspension were transferred to sterile microtubes and an equal volume of sterile 50% glycerol (Merck, 4091) was added to each tube so that a final spore suspension of 2×10^7 spores per ml in 25% glycerol was obtained. After careful mixing of the stock, the spore suspension was transferred in 100 μl aliquots to sterile microtubes and stored at −80° C.
(§3) Antifungal activity was measured by photospectrometry as described by Broekaert et al, (1990, FEMS Microbiol Lett, 69:55-60). Tests were performed by adding 20 μl of test solution and 80 μl of a fungal spore suspension (2×10^4 spores/ml) per well in a sterile flat-bottom 96-well microtiterplate. The spore suspension was prepared by diluting the stock spore suspension ([…] in 25% glycerol) 1:1000 in half-strength potato dextrose broth. A positive growth control consisting of eight wells containing 20 μl of sterile milli-Q water and 80 μl of the fungal spore suspension was included in each test. The microtiterplates were incubated (with the lid on) in an aerated place at room temperature and under conditions of darkness for all test organisms.
(§4) After 30 minutes of incubation (when the spores are settled on the well bottom) the optical density was measured in a microplate reader (Bio Rad 3550-UV) at 595 nm. Incubation of the microtiterplates continued until the optical density of the control microculture was between 0.250 and 0.500, which took approximately 72 hours (96 hours for V dahliae). Percentage of growth inhibition (% GI) was estimated as 100 times the ratio of the corrected absorbance of the control microculture minus the corrected absorbance of the test microculture over the corrected absorbance of the control microculture at 595 nm. The corrected absorbance values equal the absorbance at 595 nm of the culture measured after 72 or 96 hours minus the absorbance at 595 nm measured after 30 minutes.
(§5) % GI=[(Acontrol−Atest/Acontrol]×100
(§6) where Acontrol=(A72/96h−A30min)control
(§7) The IC50 value is defined as the concentration that gives a 50% growth inhibition after 72 or 96 hours of incubation. The minimum inhibitory concentration (MIC) corresponds to the minimum concentration that gives 100% growth inhibition after 72 or 96 hours incubation.

[2] = system: Ascophyta pisi (MUCL 30164); type: cell-based; settings: for A PISI IC: the source numbers peptides by N-terminal amino acid
Protocol: as §1, §2, §3, §4, §5, §6, §7

[3] = Table 4 / FIG. 6: Rs-AFP2-based 12-mer split peptides, the source numbers peptides by N-terminal amino acid
[4] = Table 4: Rs-AFP2-based 12-mer split peptides, triplicate
[5] = Table 7: Rs-AFP1-based 12-mer split peptides, ½ PDB
[6] = Table 14: 18-, 19-, 20-mer peptides with C-terminal Phe49, duplo
[7] = Table 3 / FIG. 6: Rs-AFP2-based 9-mer split peptides, the source numbers peptides by N-terminal amino acid
[8] = Table 3: Rs-AFP2-based 9-mer split peptides, duplicate
[9] = the source numbers peptides by N-terminal amino acid
[10] = Table 6: Rs-AFP1-based 9-mer split peptides
[11] = Table 6: Rs-AFP1-based 9-mer split peptides, ½ PDB

Row | Molecule | IC50 [1, 3] | MIC [1, 4] | IC50 [1, 7] | MIC [1, 8] | further results
1 | 114 (CIRLEKARHGSC; listed as Raphanus sativus) [compound 114] | 74 µg/mL | 100 µg/mL |  |  | F CULMORUM IC50 ([1]; Table 7 / FIG. 8: Rs-AFP1-based 12-mer split peptides, the source numbers peptides by N-terminal amino acid): 328 µg/mL; F CULMORUM MIC ([1]; Table 7: Rs-AFP1-based 12-mer split peptides): 400 µg/mL; A PISI IC50 [2, 5]: 318 µg/mL; A PISI MIC [2, 5]: >400 µg/mL
2 | CC[C@H](NC(=O)[C@H](CO)NC(=O)CNC(=O)[C@H](Cc1c[nH]cn1)NC(=O)[C@H](CCCNC(=N)N)NC(=O)[C@H](C)NC(=O)[C@H](CCCCN)NC(C)=O)C(=O)N[C@@H](CC(N)=O)C(=O)N[C@@H](Cc1ccc(O)cc1)C(=O)N[C@H](C(=O)N[C@@H](Cc1ccccc1)C(=O)N1CCC[C@H]1C(=O)N[C@@H](C)C(=O)N[C@@H](Cc1c[nH]cn1)C(=O)N[C@@H](CCCCN)C(=O)N[C@@H](CC)C(=O)N[C@H](C(=O)N[C@@H](CC)C(=O)N[C@@H](Cc1ccc(O)cc1)C(=O)N[C@@H](Cc1ccccc1)C(N)=O)[C@@H](C)CC)C(C)C [Peptide Q06, KARHGSBNYVFPAHKBIBYF] (Ac-KARHGS[Abu]NYVFPAHK[Abu]I[Abu]YF-NH2) |  |  |  |  | IC50 SMF + pH5 [1, 6]: 31 ± 17 μg/ml; IC50 SMF + pH7 [1, 6]: 62 ± 8 μg/ml; IC50 ½ PDB ([1]; Table 14: 18-, 19-, 20-mer peptides with C-terminal Phe49, peptides single experiment): 4.8 µg/mL (≈ 2.06 µM)
3 | CC[C@H](C)[C@H](NC(=O)[C@H](CS)NC(=O)[C@H](CCCCN)NC(C)=O)C(=O)N[C@@H](CS)C(=O)N[C@@H](Cc1ccc(O)cc1)C(=O)N[C@@H](Cc1ccccc1)C(N)=O [compound 44] (Ac-KCICYF-NH2) |  |  |  |  | F CULMORUM IC50 ([1]; Table 5 / FIG. 8: Rs-AFP1-based 6-mer split peptides): 376 µg/mL; F CULMORUM MIC ([1]; Table 5: Rs-AFP1-based 6-mer split peptides): >400 tg/ml; A PISI IC50 [2]: 400 µg/mL; A PISI MIC [2]: >400 µg/mL
4 | CC[C@H](C)[C@H](NC(=O)[C@H](CS)NC(=O)[C@H](CCC(N)=O)NC(=O)[C@H](CC(N)=O)NC(=O)[C@H](CCCCN)NC(=O)[C@H](CS)NC(=O)[C@H](C)NC(=O)[C@H](CC(N)=O)NC(C)=O)C(=O)N[C@@H](CCCNC(=N)N)C(N)=O [compound 65] (Ac-NACKNQCIR-NH2) |  |  | 144 µg/mL (≈ 132 µM) | 200 µg/mL (≈ 183 µM) | 
5 | CC[C@H](C)[C@H](NC(=O)[C@H](CS)NC(=O)[C@H](CCC(N)=O)NC(=O)[C@H](CC(N)=O)NC(=O)[C@H](CCCCN)NC(=O)[C@H](CS)NC(=O)[C@H](C)NC(C)=O)C(=O)N[C@@H](CCCNC(=N)N)C(=O)N[C@@H](CC(C)C)C(N)=O [compound 66] (Ac-ACKNQCIRL-NH2) |  |  | 105 µg/mL (≈ 96.4 µM) | 150 µg/mL (≈ 138 µM) | 
6 | CC[C@H](C)[C@H](NC(=O)[C@H](CS)NC(=O)[C@H](CCCCN)NC(=O)[C@H](Cc1c[nH]cn1)NC(=O)[C@H](C)NC(=O)[C@@H]1CCCN1C(=O)[C@H](Cc1ccccc1)NC(=O)[C@@H](NC(C)=O)C(C)C)C(=O)N[C@@H](CS)C(N)=O [compound 85] (Ac-VFPAHKCIC-NH2) |  |  | 121 µg/mL (≈ 114 µM) | 200 µg/mL (≈ 189 µM) | F CULMORUM IC [1, 9]: 121 µg/mL; F CULMORUM MIC [1, 10]: 200 µg/mL; A PISI MIC [2, 11]: 400 µg/mL; A PISI IC [2, 11]: 184 µg/mL
7 | CC[C@H](C)[C@H](NC(=O)[C@H](CS)NC(=O)[C@H](CCCCN)NC(=O)[C@H](Cc1c[nH]cn1)NC(=O)[C@H](C)NC(=O)[C@@H]1CCCN1C(=O)[C@H](Cc1ccccc1)NC(C)=O)C(=O)N[C@@H](CS)C(=O)N[C@@H](Cc1ccc(O)cc1)C(N)=O [compound 86] (Ac-FPAHKCICY-NH2) |  |  | 144 µg/mL (≈ 128 µM) | 400 µg/mL (≈ 356 µM) | F CULMORUM IC [1, 9]: 196 µg/mL; F CULMORUM MIC [1, 10]: 250 µg/mL; A PISI MIC [2, 11]: 200 µg/mL; A PISI IC [2, 11]: 80 µg/mL
8 | CC[C@H](C)[C@H](NC(=O)[C@H](CS)NC(=O)[C@H](CCC(N)=O)NC(=O)[C@H](CC(N)=O)NC(=O)[C@H](CCCCN)NC(=O)[C@H](CS)NC(=O)[C@H](C)NC(=O)[C@H](CC(N)=O)NC(=O)[C@H](CC(N)=O)NC(=O)[C@H](CC(N)=O)NC(C)=O)C(=O)N[C@@H](CCCNC(=N)N)C(=O)N[C@@H](CC(C)C)C(N)=O [compound 106] (Ac-NNNACKNQCIRL-NH2) | 116 µg/mL (≈ 81 µM) | 150 µg/mL (≈ 105 µM) |  |  | 
9 | CC[C@H](C)[C@H](NC(=O)[C@H](CS)NC(=O)[C@H](CCC(N)=O)NC(=O)[C@H](CC(N)=O)NC(=O)[C@H](CCCCN)NC(=O)[C@H](CS)NC(=O)[C@H](C)NC(=O)[C@H](CC(N)=O)NC(C)=O)C(=O)N[C@@H](CCCNC(=N)N)C(=O)N[C@@H](CC(C)C)C(=O)N[C@@H](CCC(=O)O)C(=O)N[C@@H](CCCCN)C(N)=O [compound 108] (Ac-NACKNQCIRLEK-NH2) | 150 µg/mL (≈ 103 µM) | 200 µg/mL (≈ 137 µM) |  |  | 
10 | CC[C@H](C)[C@H](NC(=O)[C@H](CS)NC(=O)[C@H](CCC(N)=O)NC(=O)[C@H](CC(N)=O)NC(=O)[C@H](CCCCN)NC(=O)[C@H](CS)NC(=O)[C@H](C)NC(C)=O)C(=O)N[C@@H](CCCNC(=N)N)C(=O)N[C@@H](CC(C)C)C(=O)N[C@@H](CCC(=O)O)C(=O)N[C@@H](CCCCN)C(=O)N[C@@H](C)C(N)=O [compound 109] (Ac-ACKNQCIRLEKA-NH2) | 106 µg/mL (≈ 74.8 µM) | 150 µg/mL (≈ 106 µM) |  |  | 
11 | Ac-CIRLEKARH-NH2 [compound 71] |  |  | 66 µg/mL | 100 µg/mL | 
12 | Ac-FPAHKC-NH2 [compound 40] |  |  |  |  | MIC ([1]; Table 2: Rs-AFP2-based 6-mer split peptides, duplicate): 100 µg/mL
13 | Ac-IRLEKARHGSCN-NH2 [compound 115] | 203 µg/mL | 300 µg/mL |  |  | 
14 | Ac-KNQCIRLEKARH-NH2 [compound 111] | 126 µg/mL | 200 µg/mL |  |  | 
15 | Ac-LEKARHGSC-NH2 [compound 74] |  |  | 270 µg/mL | 400 µg/mL | F CULMORUM IC [1, 9]: 370 µg/mL; F CULMORUM MIC [1, 10]: >400 µg/mL
16 | Ac-NQCIRLEKARHG-NH2 [compound 112] | 149 µg/mL | 200 µg/mL |  |  | 
17 | Ac-NYVFPAHKC-NH2 [compound 83] |  |  | 175 µg/mL | 250 µg/mL | F CULMORUM IC [1, 9]: 330 µg/mL; F CULMORUM MIC [1, 10]: 400 µg/mL
18 | Ac-QCIRLEKAR-NH2 [compound 70] |  |  | 78 µg/mL | 100 µg/mL | 
19 | Ac-YVFPAHKCI-NH2 [compound 84] |  |  | 175 µg/mL | 400 µg/mL | F CULMORUM IC [1, 9]: 145 µg/mL; F CULMORUM MIC [1, 10]: 250 µg/mL
20 | HGSBNYVFPAHKBIBY (Ac-HGS[Abu]NYVFPAHK[Abu]I[Abu]Y-NH2; listed as Raphanus sativus) [SEQ ID NO: 99] |  |  |  |  | antifungal activity (in words) [1]: nonactive
21 | RHGSBNYVFPAHKBIBY (Ac-RHGS[Abu]NYVFPAHK[Abu]I[Abu]Y-NH2; listed as Raphanus sativus) [SEQ ID NO: 107] |  |  |  |  | antifungal activity (in words) [1]: very active
